Reference: US9034846B2, “Use of cyclodextrin for treatment and prevention of bronchial inflammatory diseases” (UNIVERSITE DE LIEGE, priority 2004, dated 2015)

Tests used:
[1] = tested on: OVA exposed mice; test: Peribronchial inflammation score by histology, OVA mouse model; format: in vivo
Experimental: (§1) In order to study modulation of airway inflammation, males BALB/c mice of 6 to 8 weeks old were sensitized by intraperitoneal injection of 10 μg ovalbumin (OVA) (Sigma Aldrich, Schnelldorf, Germany) emulsified in aluminum hydroxyde (AlumInject; Perbio, Erembodegem, Belgium) on days 1 and 8. Mice were subsequently exposed to allergens by daily inhalation of an aerosol of OVA 1%, for 30 minutes, generated by ultrasonic nebulizer (Devilbiss 2000), from day 21 to 27. […] Mice were sacrificed performed on day 28 as previously reported by Cataldo and al in Am. J. Pathol 2002; 161(2):491-498.
(§2) After BAL, the thorax was opened and the left main bronchus was clamped. The left lung was excised and frozen immediately at −80° C. for protein and mRNA extraction. The right lung was infused with 4 ml paraformaldehyde 4%, embedded in paraffin and used for histology. Sections of 5 μm thickness were cut off from paraffin and were stained with haematoxylin-eosin. The extent of peribronchial inflammation was estimated by a score calculated by quantification of peribronchial inflammatory cells, as previously described by Cataldo D D, Tournoy K G, Vermaelen K et al. in Am J Pathol 2002; 161(2):491-498. A value of 0 was adjudged when no inflammation was detectable, a value of 1 when there was occasionally inflammatory cells, a value of 2 when most bronchi were surrounded by a thin layer (1 to 5 cells) of inflammatory cells and a value of 3 when most bronchi were surrounded by a thick layer (>5 cells) of inflammatory cells. Since 5-7 randomly selected tissue sections per mouse were scored, inflammation scores are expressed as a mean value and can be compared between groups. After Congo Red staining, the eosinophilic infiltration in the airway walls was quantified by manual count and reported to the perimeter of epithelial basement membrane defining an eosinophilic inflammatory score.

[2] = tested on: OVA exposed mice; test: Bronchoalveolar lavage differential cell counts, OVA mouse model of asthma; format: in vivo; conditions: for Eosinophils (%) in BAL / Epithelial cells (%) in BAL / Lymphocytes (%) in BAL / Macrophages (%) in BAL / Neutrophils (%) in BAL / Total cells (10^4/ml) in BAL: Table 2
Experimental: (§3) In order to study modulation of airway inflammation, males BALB/c mice of 6 to 8 weeks old were sensitized by intraperitoneal injection of 10 μg ovalbumin (OVA) (Sigma Aldrich, Schnelldorf, Germany) emulsified in aluminum hydroxyde (AlumInject; Perbio, Erembodegem, Belgium) on days 1 and 8. Mice were subsequently exposed to allergens by daily inhalation of an aerosol of OVA 1%, for 30 minutes, generated by ultrasonic nebulizer (Devilbiss 2000), from day 21 to 27. Mice were subjected to inhalation of β-CD, HP-β-CD HP 1, 7.5, 50 mM and HP-β-CD 50 mM 30 minutes before OVA inhalation. Mice were sacrificed performed on day 28 as previously reported by Cataldo and al in Am. J. Pathol 2002; 161(2):491-498.
Immediately after assessment of airway responsiveness, and 24 hours after the last allergen exposure.
(§4) Mices were sacrificed and a bronchoalveolar lavage was performed using 4×1 ml PBS-EDTA 0.05 mM (Calbiochem, Darmstadt, Germany) as previously described by Cataldo D D, Tournoy K G, Vermaelen K et al. in Am J Pathol 2002; 161(2):491-498. Cells were recovered by gentle manual aspiration. After centrifugation of bronchoalveolar fluid (BALF) (1200 rpm for 10 minutes, at 4° C.), the supernatant was frozen at −80° C. for protein assessment and the cell pellet was resuspended in 1 ml PBS-EDTA 0.05 mM. The differential cell counts were performed on cytocentrifuged preparations (Cytospin) after staining with Diff-Quick (Dade, Belgium).

[3] = tested on: OVA exposed mice; test: Bronchial responsiveness to methacholine (Penh, barometric plethysmograph); format: in vivo, mouse; conditions: FIG. 10
Experimental: as §1
Twenty-four hours after the last allergen exposure, the bronchial hyper responsiveness was determined by measuring the Penh (Enhanced Pause) using a barometric plethysmograph (Emka technologies, Paris) as proposed by Hamelmann, E., et al., Am. J. Respir. Crit. Care Med. 156 (1997) 766-775). The Penh was measured at baseline and […] after the inhalation of increasing doses (25, 50, 75 and 100 mM) of methacholine (Mch).

[4] = tested on: mice; test: BAL differential cell counts after exposure to inhaled CRYSMEB (Table 1); format: in vivo, mouse
Experimental: as §4, with “Belgium). […]” for “Belgium).”

[5] = tested on: IL-13; test: IL-13 ELISA in BAL and lung protein extracts, OVA mouse model; format: in vivo
Experimental: as §3
The left lung was crushed using a Mikro-Dismembrator (Braun Biotech International, Gmbh Melsungen, Germany). For proteins extraction, the crushed lung tissue was incubated overnight at 4° C. in a solution containing 2M urea, 1M NaCl and 50 mM Tris (pH 7.5) and subsequently centrifuged 15 minutes at 16.000×g. The supernatant was stored at −80° C.
Eotaxin and IL-13 levels were assessed using commercial ELISAs (R&D systems, Abingdon, UK). Eotaxin was measured by incubation in a wheel coated with a primary antibody specifically dedicated to the recognition of the protein and after rinsing, a second antibody against eotaxin, coupled with horse radish peroxydase was used to quantify the amounts of eotaxin in the solution
IL-13 was measured by incubation in a wheel coated with a primary antibody specifically dedicated to the recognition of the protein and after rinsing, a second antibody against IL-13, coupled with horse radish peroxydase was used to quantify the amounts of […] in the solution.

[6] = tested on: OVA exposed mice; test: Peribronchial eosinophil infiltration (Congo Red), OVA mouse model; format: in vivo; conditions: after allergen exposure; FIG. 3
Experimental: as §3, §2

[7] = exposure to aerosolized CRYSMEB 30 min/day during 7 days
[8] = reference therapy, concentration not given

For 2-O-methyl βcyclodextrin [CRYSMEB], the peribronchial inflammation score ([1]; 20 mM, compared to placebo, FIG. 9A) was “decreased inflammation score”, the Bronchoalveolar lavage eosinophilia ([2]; Example 2, treated groups vs placebo) was “significantly decreased” and the “Eosinophils (%) in BAL” value ([2]; 10 mM) was 8.84 ± 2.946 %. For the same compound, the “Epithelial cells (%) in BAL” value ([2]; 10 mM) was 36.83 ± 5.644%, the “Lymphocytes (%) in BAL” value ([2]; 10 mM) was 0.214 ± 0.1079% and the “Macrophages (%) in BAL” value ([2]; 10 mM) was 52.714 ± 6.49%. For the same compound, the “Neutrophils (%) in BAL” value ([2]; 10 mM) was 1.26 ± 0.4587%, the “Total cells (10^4/ml) in BAL” value ([2]; 10 mM) was 131.93 ± 33.637 10^4/ml and the “methacholine-induced Penh increase” value ([3]; 10 mM inhalation) was “reduced”. The responsiveness to methacholine ([3]; after allergen exposure, extent comparable to fluticasone) was “significantly reduced”, the “cellular composition of the bronchoalveolar lavage” value [4, 7] was “not significantly altered” and the “eosinophil and neutrophil counts in BAL” value [4, 7] was “no differences”. For the same compound, the “Eosinophils (%) in BAL” value ([4]; inhaled 20 mM) was 0.0375 ± 0.0375%, the “Epithelial cells (%) in BAL” value ([4]; inhaled 20 mM) was 29.9 ± 5.909% and the “Lymphocytes (%) in BAL” value ([4]; inhaled 20 mM) was 0.425 ± 0.1485%. The “Macrophages (%) in BAL” value ([4]; inhaled 20 mM) was 69.5 ± 5.956%, the “Neutrophils (%) in BAL” value ([4]; inhaled 20 mM) was 0.0375 ± 0.1061% and the “Eosinophils (%) in BAL” value ([4]; inhaled 50 mM) was 0.1125 ± 0.0789%. The “Epithelial cells (%) in BAL” value ([4]; inhaled 50 mM) was 36.1375 ± 4.52%, the “Lymphocytes (%) in BAL” value ([4]; inhaled 50 mM) was 0.275 ± 0.1161% and the “Macrophages (%) in BAL” value ([4]; inhaled 50 mM) was 63.1625 ± 4.695%. The “Neutrophils (%) in BAL” value ([4]; inhaled 50 mM) was 0.2 ± 0.3505%, the “Eosinophils (%) in BAL” value ([4]; inhaled 75 mM) was 0.0375 ± 0.0375% and the “Epithelial cells (%) in BAL” value ([4]; inhaled 75 mM) was 30.8875 ± 1.349%. For the same compound, the “Lymphocytes (%) in BAL” value ([4]; inhaled 75 mM) was 0.075 ± 0.0491%, the “Macrophages (%) in BAL” value ([4]; inhaled 75 mM) was 68.9 ± 1.334% and the “Neutrophils (%) in BAL” value ([4]; inhaled 75 mM) was 0.0375 ± 0.1061%. For the same compound, the “levels of IL-13 in whole lung protein extracts” value ([5]; FIG. 11) was “significantly decreased”.
For `C[C@@H]1C[C@H]2[C@@H]3C[C@H](F)C4=CC(=O)C=C[C@]4(C)[C@@]3(F)[C@@H](O)C[C@]2(C)[C@@]1(O)C(=O)SCF` [Fluticasone, reference compound], the “Eosinophils (%) in BAL” value [2, 8] was 32.92 ± 7.306 %, the “Epithelial cells (%) in BAL” value [2, 8] was 22.85 ± 5.343% and the “Lymphocytes (%) in BAL” value [2, 8] was 1.68 ± 0.7115%. For the same compound, the “Macrophages (%) in BAL” value [2, 8] was 40.52 ± 3.122%, the “Neutrophils (%) in BAL” value [2, 8] was 1.85 ± 1.093% and the “Total cells (10^4/ml) in BAL” value [2, 8] was 75.92 ± 11.922 10^4/ml.
For `OC[C@H]1O[C@@H]2O[C@H]3[C@H](O)[C@@H](O)[C@@H](O[C@H]4[C@H](O)[C@@H](O)[C@@H](O[C@H]5[C@H](O)[C@@H](O)[C@@H](O[C@H]6[C@H](O)[C@@H](O)[C@@H](O[C@H]7[C@H](O)[C@@H](O)[C@@H](O[C@H]8[C@H](O)[C@@H](O)[C@@H](O[C@H]1[C@H](O)[C@H]2O)O[C@@H]8CO)O[C@@H]7CO)O[C@@H]6CO)O[C@@H]5CO)O[C@@H]4CO)O[C@@H]3CO` [β-CD, β-cyclodextrin], the peribronchial inflammation score ([1]; concentration not given, FIG. 2) was “did not reduce”, the “number of eosinophils in BAL” value ([2]; after allergen exposure, concentration not given, FIG. 1) was “tendency to increase” and the peribronchial eosinophil infiltration [6] was “decrease reached statistical significance”. For the same compound, the “IL-13 levels in BAL” value ([5]; FIG. 7b) was “increased”.
